Measurements as given in paper PMC4206519, “Lack of Renoprotective Effect of Chronic Intravenous Angiotensin-(1-7) or Angiotensin-(2-10) in a Rat Model of Focal Segmental Glomerulosclerosis” (PLoS ONE, 2014).
Read-outs that look alike come from different tables or passages of the source. Where no end group is shown, it is not given here.

Experiments:
human AT2 receptor = molecular target: T1, human AT2 receptor (Homo sapiens, UniProt P50052); assay: Ang peptide radioligand binding assay, displacement of [125I]-Ang-II (AT2R/HEK); details: competition with [125I]-Ang-II, HEK-293 cells stably transfected with human AT2 receptor, 90 min on ice, log-logit analysis; average of n studies
T1 construct: expressed in transfected cells
T1 sequence (P50052 1-363): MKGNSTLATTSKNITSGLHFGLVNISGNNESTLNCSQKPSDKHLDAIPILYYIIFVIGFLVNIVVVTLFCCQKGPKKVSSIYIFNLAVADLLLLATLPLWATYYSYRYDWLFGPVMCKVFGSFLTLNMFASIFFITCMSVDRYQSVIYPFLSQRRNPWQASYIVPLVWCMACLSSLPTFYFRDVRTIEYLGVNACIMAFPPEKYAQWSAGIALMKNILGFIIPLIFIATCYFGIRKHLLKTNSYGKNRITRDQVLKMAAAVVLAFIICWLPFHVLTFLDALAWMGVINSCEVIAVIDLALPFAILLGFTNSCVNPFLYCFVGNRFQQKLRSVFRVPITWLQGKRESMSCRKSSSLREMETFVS
Experimental: (§1) HEK-293 cells stably expressing AT1a receptor were maintained and characterized as previously described. HEK-293 cells expressing AT2 receptors were transfected with pcDNA3.1 plasmid containing human AT2 receptor DNA using Lipofectamine 2000 at 1 µg DNA/well of a six-well plate according to manufacturer's protocol (Invitrogen, Carlsbad, CA). Transfected cells were maintained in Minimal Essential Medium (MEM) containing 10% fetal bovine serum and 1% antibiotic/fungizone/antimycotic with addition of geneticin (400 µg/ml) for stable transfectants. Confluent monolayers cells were deprived of serum (0.1% bovine serum albumin) for 2–24 hours before assay. […] After 90 min of incubation on ice, cells were gently washed 3 times with ice cold 0.9% sodium chloride followed by solubilization of the cell monolayer with 0.1 N NaOH/0.1% SDS. The solubilized sample was placed into a gamma counter for determination of cell-associated radioactivity. Log-logit analysis of the obtained competition curves was performed for determination of IC50 values.

[1] = test system: kidney homogenates of uni-nephrectomized FHH rats; assay: Intrarenal Ang peptide content by parallel reaction monitoring (LC/MS/MS), late disease protocol; assay type: in vivo, rat; details: late disease model; for intrarenal level of the exogenously administered peptide (in words): kidneys harvested at sacrifice, chronic iv infusion 100-400 ng/kg/min, whole kidney homogenate, LC-MS/MS (PRM)
Experimental: Stable isotope labeled peptide standards (SIS, ^13C ^15N, New England Peptide, Gardner, MA) were resuspended in water to 1 nM and stored at −80C in Lo-Bind microcentrifuge tubes (Eppendorf) with the exception of Ang-I, which was resuspended in 30% acetonitrile and stored at 0.4 nM final concentration. Ang-(1-7), Ang-II, and Ang-(2-10) contained isotopically labeled valine. Ang-I contained isotopically labeled valine and proline. Peptide concentration was determined by amino acid analysis.
Tissues were stored frozen at −80°C in 15 ml Falcon tubes. Whole kidney tissues were submerged in liquid nitrogen for 5 minutes and kidney tissue was processed in a biopulverizer (MidSci, St. Louis, MO) to a fine powder. Pulverized tissue was transferred to a 5-ml glass dounce with a chilled spatula. Approximately 200 mg of tissue was used for peptide extraction. Four volumes of ice cold methanol (Burdick and Jackson, LC-MS Grade) were added to the tissue followed by a volume of water (Burdick and Jackson, LC-MS Grade) containing O-phenanthroline (Sigma Aldrich) and SIS peptides resulting in a final concentration of 1 mM and 1.8 nM, respectively. Tissue was homogenized in the dounce on ice for 1 minute. An aliquot of tissue homogenate was transferred to a 2-ml lo-bind microcentrifuge tube and stored at −20°C for at least 1 hour. Samples were further centrifuged for 10 minutes at 10,000×g at 4°C. An aliquot equal to approximately 60% of the total sample volume was transferred to a lo-bind tube equivalent to 100 mg of tissue (wet weight). From this aliquot, a volume equal to the wet weight of the starting tissue was transferred to a new lo-bind tube and diluted with ice cold water so that the final concentration of methanol was 40%. […] The filtrate volume was estimated by variable volume pipet and recorded to determine the fraction of starting volume collected. […] Declustering potential was set at 80 V. For parallel reaction monitoring (PRM) quantification, the dominant charge state of each peptide was determined and collision energies were optimized manually for SIS peptides (Table 1). […]

AT1a receptor = molecular target: T2, AT1a receptor (Rattus norvegicus, UniProt P25095); assay: Ang peptide radioligand binding assay, displacement of [125I]-Ang-II (AT1R/HEK); details: competition with [125I]-Ang-II, HEK-293 cells stably expressing AT1a receptor, 90 min on ice, log-logit analysis; average of n studies
T2 construct: expressed in transfected cells
T2 sequence (P25095 1-359): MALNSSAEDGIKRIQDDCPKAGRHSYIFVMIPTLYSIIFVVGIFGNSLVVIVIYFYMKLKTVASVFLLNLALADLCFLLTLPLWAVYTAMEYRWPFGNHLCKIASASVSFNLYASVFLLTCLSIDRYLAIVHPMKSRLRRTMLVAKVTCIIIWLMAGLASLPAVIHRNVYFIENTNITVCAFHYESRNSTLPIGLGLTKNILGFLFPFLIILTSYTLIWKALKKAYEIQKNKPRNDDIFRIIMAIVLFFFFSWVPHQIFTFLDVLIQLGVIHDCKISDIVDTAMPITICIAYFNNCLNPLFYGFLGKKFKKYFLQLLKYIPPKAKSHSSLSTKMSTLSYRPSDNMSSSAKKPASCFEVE
Experimental: as §1

[2] = test system: uni-nephrectomized fawn-hooded hypertensive (FHH) rats; details: late disease model; for systolic blood pressure at 6 weeks of treatment / systolic blood pressure after 12 weeks of treatment: tail-cuff, mean ± SEM, SEM; for systolic blood pressure at 6 weeks of treatment / degree of glomerulosclerosis (semiquantitative score 0-4): captopril 100 mg/kg/d or losartan 20 mg/kg/d orally; for systolic blood pressure at 6 weeks of treatment: vehicle 179±2; for systolic blood pressure after 12 weeks of treatment: captopril 100 mg/kg/d, losartan 20 mg/kg/d orally, low-dose Ang-(2-10) 100 ng/kg/min iv, vehicle 185±3; for degree of glomerulosclerosis (semiquantitative score 0-4): vehicle 2.29±0.9
Experimental: (§2) Male FHH rats (In-house colony established from animals obtained from Charles River Laboratories, Wilmington, MA) were housed at a certified animal facility at 22°C and a 12∶12 h light/dark cycle. […] All surgeries were performed under isoflurane anesthesia (5% induction, 2% maintenance), at 37°C, and perioperative buprenorphine.
(§3) Following anesthesia, an incision was made in the left flank; the kidney was exposed and excised after ligation of the pedicle. […] Under anesthesia, a mini-pump was placed in a subcutaneous pocket. […] Pumps were replaced once during the treatment period. For the early disease model, five groups of rats were examined. […] For the late disease model, eight groups of rats were examined. […] The dosages of the Ang peptides were selected based on previous studies where Ang-(1-7) was similarly administered using implanted osmotic mini-pumps, [16], [17], [26]. […] Systemic blood pressure was measured by tail-cuff sphygmomanometer (Natume, Japan). Animals were placed on metabolic cages for urine collection at pre-specified time points. Urinary protein excretion was measured by the method of Lowry. Urinary sodium concentration was measured by ion-selective electrodes. At sacrifice, kidneys were harvested for histological analysis and measurement of Ang peptide concentration.
(§4) Upon harvesting, kidneys were cleared of blood by transcardiac perfusion of iced-cold phosphate buffered saline, excised and fixed in 4% paraformaldehyde, embedded in paraffin and processed for microscopic examination. Kidney sections (2-µm) were stained with hematoxylin-eosin (H&E), Jones silver and Periodic Acid Schiff (PAS). Slides were reviewed by an experienced renal pathologist (S.S) in a blinded fashion. Index of glomerulosclerosis was evaluated by a semiquantitative score based on the percentage of the glomerular tuft occupied by sclerotic lesions (0: no lesions, 1: lesions affecting less than 25% of the glomerulus, 2-3-4: lesions affecting 25–50%, 50–75% and 75–100% of the glomerulus, respectively). Tubular injury was rated based on presence of tubular atrophy, microcystic tubular dilation and interstitial fibrosis, from 0 to 3 (0: none; 1: mild; 2: moderate; 3: severe).
(§5) Blood pressure data were analyzed by repeated measures ANOVA. Differences within groups were analyzed using paired t-tests adjusted with Bonferroni modification. Differences between group means at each time point were tested using one-way ANOVA followed by Tukey-Kramer post-hoc test. Urinary protein excretions were log10 transformed and tested using a two-way ANOVA for repeated measures followed by Scheffe post hoc test for differences between the groups. Untransformed 24-hour urinary protein excretions at each time point were then tested using Kruskal-Wallis test. If a significant main effect was detected then differences between groups were tested using the Mann-Whitney U test with the probability adjusted using the Bonferroni modification. Urine sodium was also assessed by two-way ANOVA for repeated measures and pairwise multiple comparisons were made using the Holm-Sidak method. Multiple comparisons of Ang peptide levels were made using ANOVA when data were normally distributed and with log10 transformation when non-normally distributed. Post-hoc pairwise comparisons were made using the Holm-Sidak method. […] For Ang peptide measurements by LC/MS/MS, only values above the LLOQ were utilized for statistical comparisons.

[3] = test system: uni-nephrectomized fawn-hooded hypertensive (FHH) rats; assay: Model of FSGS, early disease protocol (blood pressure, proteinuria, histology, weights, urine); assay type: in vivo, rat
Experimental: as §2, §3, §4, §5

Compound | IC50 (human AT2 receptor) [nM] | intrarenal level of the exogenously administered peptide (in words) [1] | IC50 (AT1a receptor) [nM] | systolic blood pressure at 6 weeks of treatment [2] [mmHg] | systolic blood pressure after 12 weeks of treatment [2] [mmHg] | degree of glomerulosclerosis (semiquantitative score 0-4) ([2]; week 30, after 12 weeks) | other results
CC[C@H](C)[C@H](NC(=O)[C@H](Cc1ccc(O)cc1)NC(=O)[C@@H](NC(=O)[C@H](CCCNC(=N)N)NC(=O)[C@@H](N)CC(=O)O)C(C)C)C(=O)N[C@@H](Cc1c[nH]cn1)C(=O)N1CCC[C@H]1C(=O)O [Ang-(1-7)] | 60.9 | did not lead to a significant increase | 3790 | – | – | – | –
CC[C@H](C)[C@H](NC(=O)[C@H](Cc1ccc(O)cc1)NC(=O)[C@@H](NC(=O)[C@H](CCCNC(=N)N)NC(=O)[C@@H](N)CC(=O)O)C(C)C)C(=O)N[C@@H](Cc1cnc[nH]1)C(=O)N1CCC[C@H]1C(=O)N[C@@H](Cc1ccccc1)C(=O)O [Ang-II, Angiotensin (Ang) II] | – | – | – | – | – | – | survival (in words) ([2]; Ang-II low-dose 100 ng/kg/min iv, time mark = 6 weeks of treatment): no rats in this group survived beyond that time mark
CCCCc1nc(Cl)c(CO)n1Cc1ccc(-c2ccccc2-c2nn[nH]n2)cc1 [Losartan, losartan] | – | – | – | 155±5 | 146±5 | 1.28±0.7 | –
C[C@H](CS)C(=O)N1CCC[C@H]1C(=O)O [Captopril, captopril] | – | – | – | 156±7 | 145±5 | 0.88±0.2 | kidney Ang-II levels compared with vehicle (in words) ([1]; after 12 weeks, captopril 100 mg/kg/d, Mann-Whitney U test p=0.002, n=5/group): lower; degree of glomerulosclerosis (semiquantitative score 0-4) ([3]; after 8 weeks, Ang-II 100 ng/kg/min iv, captopril 100 mg/kg/d, mean ± SEM, vehicle 0.4±0.1, SEM): 0.1±0.1; tubular injury score (0-3) ([3]; after 8 weeks, Ang-II 100 ng/kg/min iv, captopril 100 mg/kg/d, mean ± SEM, vehicle 0.8±0.2): non-significant reduction; urinary protein excretion (proteinuria), median (range), after 4 weeks ([3]; captopril 100 mg/kg/d, Lowry method, n=5, vehicle 89 (31–188), p=0.014 vs vehicle): 14 (13–17) mg/day; urinary protein excretion (proteinuria), median (range), after 8 weeks ([3]; captopril 100 mg/kg/d, Lowry method, n=5, vehicle 243 (91–402), p=0.014 vs vehicle): 30 (25–33) mg/day; systolic blood pressure after 4 weeks of therapy ([3]; tail-cuff, captopril 100 mg/kg/d in drinking water, n=5, mean ± SEM, vehicle 161±4, SEM): 117±5 mmHg; systolic blood pressure after 8 weeks of therapy ([3]; tail-cuff, captopril 100 mg/kg/d in drinking water, n=5, mean ± SEM, vehicle 162±4, SEM): 134±3 mmHg; progression of the degree of proteinuria between weeks 18 and 24 ([2]; captopril 100 mg/kg/d orally, vehicle +342±289, p=0.012): -225 ± 453 mg/day; tubular injury score (0-3) ([2]; week 30, after 12 weeks, captopril 100 mg/kg/d orally, printed as captopril vs. vehicle, p<0.05): 2.6±0.4
RVYIHPFHL [Ang-(2-10)] | 6.6 | did not lead to a significant increase | 47.8 | – | – | – | demise of treated animals ([2]; 400 ng/kg/min iv): 7 out of the 9; number of rats that survived until the end of the study ([2]; high-dose 400 ng/kg/min iv, 12 weeks, n=9 treated): 2
